Test results: patent publication US8242159B2, “1,3-dihydro-5-isobenzofurancarbonitrile derivatives and pharmaceutical composition thereof for the treatment of premature ejaculation” (Dong-A Pharmaceutical. Co., Ltd, priority 2007, dated 2012)

Test system: Male Wistar rats
Assay: p-PCA-induced ejaculation in anesthetized rats (ejaculation-delaying effect)
Assay type: in vivo, rat
Settings: for Ratio: Number of responding animals/total animal number: 50 mg/kg oral in 1% HPMC, p-PCA 5 mg/kg i.p. 80 min later, observed 30 min; for Latency: Time to display the ejaculatory response: 50 mg/kg oral, p-PCA 5 mg/kg i.p., mean ± standard deviation of responding rats
Method: The compounds prepared in the above examples were evaluated to determine whether they have an effect of delaying ejaculation. The evaluation was carried out using an animal model according to a method described in Yonezawa et al., Life Sci. 2000, 67(25) p 3031-9. Male Wistar rats weighing 240-260 g were used. Each compound was suspended in 1% HPMC, and then administered orally to each animal. After 60 min, the animals were anesthetized and fixed. 20 min later, para-chloroamphetamine (p-PCA) was intraperitoneally administered in a dose of 5 mg/kg in order to induce ejaculation. […] An ejaculatory response was considered to be elicited when rhythmic contraction of bulbocavernosus muscles and semen discharge occurs. Six or more animals were used for each compound. A Fisher's […] test was performed for the comparison of the proportion of responding rats (ejaculated rats) to determine significance of difference between a treatment group and a vehicle control. The time to reach ejaculation was expressed as mean±standard deviation.
Each test compound was administered at a dose of 50 mg/kg. Ejaculation was elicited in all seven animals of a control group.

## Cl.N#Cc1ccc2c(c1)COC2(CCn1cccn1)c1ccc(F)cc1 (stereo not drawn) [Ex. 60, 1-(4-fluorophenyl)-1-{2-(pyrazole-1-yl)ethyl}-1,3-dihydro-5-isobenzofurancarbonitrile hydrochloride]
  Ratio: Number of responding animals/total animal number: 4/9
  Latency: Time to display the ejaculatory response: 1010 ± 400 s

## CN(C)CCC1(c2cccs2)OCc2cc(C#N)ccc21.Cl (stereo not drawn) [Ex. 43, 1-{2-(dimethylamino)ethyl}-1-(2-thienyl)-1,3-dihydro-5-isobenzofurancarbonitrile hydrochloride]
  Ratio: Number of responding animals/total animal number: 3/7
  Latency: Time to display the ejaculatory response: 888 ± 275 s

## COc1ccc(C2(CCCn3cccn3)OCc3cc(C#N)ccc32)cc1 (stereo not drawn) [Ex. 8, 1-(4-methoxyphenyl)-1-{3-(pyrazole-1-yl)propyl}-1,3-dihydro-5-isobenzofurancarbonitrile]
  Ratio: Number of responding animals/total animal number: 4/9
  Latency: Time to display the ejaculatory response: 1230 ± 421 s

## COc1ccc(C2(CCCn3ccnc3)OCc3cc(C#N)ccc32)cc1.Cl (stereo not drawn) [Ex. 5, 1-{13-(imidazole-1-yl)propyl}-1-(4-methoxyphenyl)-1,3-dihydro-5-isobenzofurancarbonitrile hydrochloride]
  Ratio: Number of responding animals/total animal number: 3/7
  Latency: Time to display the ejaculatory response: 986 ± 342 s

## COc1ccc(C2(CCn3ccnc3)OCc3cc(C#N)ccc32)cc1 (stereo not drawn) [Ex. 6, 1-{2-(imidazole-1-yl)ethyl}-1-(4-methoxyphenyl)-1,3-dihydro-5-isobenzofurancarbonitrile]
  Ratio: Number of responding animals/total animal number: 4/7
  Latency: Time to display the ejaculatory response: 889 ± 284 s

## Cc1ccc(C2(CCCN(C)C)OCc3cc(C#N)ccc32)cc1.Cl (stereo not drawn) [Ex. 23, 1-{3-(dimethylamino)propyl}-1-(4-tolyl)-1,3-dihydro-5-isobenzofurancarbonitrile hydrochloride]
  Ratio: Number of responding animals/total animal number: 4/7
  Latency: Time to display the ejaculatory response: 967 ± 274 s

## CN(C)CCCC1(c2ccc(N(C)C)cc2)OCc2cc(C#N)ccc21.Cl (stereo not drawn) [Ex. 36, 1-(4-dimethylaminophenyl)-1-{3-(dimethylamino)propyl}-1,3-dihydro-5-isobenzofurancarbonitrile hydrochloride]
  Ratio: Number of responding animals/total animal number: 2/6
  Latency: Time to display the ejaculatory response: 554 ± 77 s

## Cc1ccc(C2(CCCn3ccnc3)OCc3cc(C#N)ccc32)cc1.Cl (stereo not drawn) [Ex. 27, 1-{3-(imidazole-1-yl)propyl}-1-(4-tolyl)-1,3-dihydro-5-isobenzofurancarbonitrile hydrochloride]
  Ratio: Number of responding animals/total animal number: 3/7
  Latency: Time to display the ejaculatory response: 864 ± 257 s

## Cl.N#Cc1ccc2c(c1)COC2(CCn1ccnc1)c1ccc(Cl)cc1 (stereo not drawn) [Ex. 64, 1-(4-chlorophenyl)-1-{2-(imidazole-1-yl)ethyl}-1,3-dihydro-5-isobenzofurancarbonitrile hydrochloride]
  Ratio: Number of responding animals/total animal number: 4/7
  Latency: Time to display the ejaculatory response: 1032 ± 299 s

## CN(C)CCCC1(c2ccccc2)OCc2cc(C#N)ccc21.Cl (stereo not drawn) [Ex. 13, 1-{3-(dimethylamino)propyl}-1-phenyl-1,3-dihydro-5-isobenzofurancarbonitrile hydrochloride]
  Ratio: Number of responding animals/total animal number: 1/6
  Latency: Time to display the ejaculatory response: 327 s

## N#Cc1ccc2c(c1)COC2(CCCn1ccnc1)c1ccccc1 (stereo not drawn) [Ex. 16, 1-{3-(imidazole-1-yl)propyl}-1-phenyl-1,3-dihydro-5-isobenzofurancarbonitrile]
  Ratio: Number of responding animals/total animal number: 4/9
  Latency: Time to display the ejaculatory response: 856 ± 365 s

## Cc1ccc(C2(CCCn3cccn3)OCc3cc(C#N)ccc32)cc1 (stereo not drawn) [Ex. 30, 1-{3-(pyrazole-1-yl)propyl}-1-(4-tolyl)-1,3-dihydro-5-isobenzofurancarbonitrile]
  Ratio: Number of responding animals/total animal number: 3/7
  Latency: Time to display the ejaculatory response: 876 ± 300 s

## COc1ccc(C2(CCCn3cccn3)OCc3cc(C#N)ccc32)cc1.Cl (stereo not drawn) [Ex. 9, 1-(4-methoxyphenyl)-1-{3-(pyrazole-1-yl)propyl}-1,3-dihydro-5-isobenzofurancarbonitrile hydrochloride]
  Ratio: Number of responding animals/total animal number: 4/7
  Latency: Time to display the ejaculatory response: 950 ± 245 s

## CN(C)c1ccc(C2(CCCn3ccnc3)OCc3cc(C#N)ccc32)cc1.Cl (stereo not drawn) [Ex. 38, 1-(4-dimethylaminophenyl)-1-{3-(imidazole-1-yl)propyl}-1,3-dihydro-5-isobenzofurancarbonitrile hydrochloride]
  Ratio: Number of responding animals/total animal number: 4/7
  Latency: Time to display the ejaculatory response: 764 ± 304 s

## N#Cc1ccc2c(c1)COC2(CCCn1cccn1)c1ccc(Cl)cc1 (stereo not drawn) [Ex. 65, 1-(4-chlorophenyl)-1-{3-(pyrazole-1-yl)propyl}-1,3-dihydro-5-isobenzofurancarbonitrile]
  Ratio: Number of responding animals/total animal number: 5/9
  Latency: Time to display the ejaculatory response: 801 ± 401 s

## Cc1ccc(C2(CCn3cccn3)OCc3cc(C#N)ccc32)cc1 (stereo not drawn) [Ex. 32, 1-{2-(pyrazole-1-yl)ethyl}-1-(4-tolyl)-1,3-dihydro-5-isobenzofurancarbonitrile]
  Ratio: Number of responding animals/total animal number: 4/9
  Latency: Time to display the ejaculatory response: 1000 ± 401 s

## COc1ccc(C2(CCn3cccn3)OCc3cc(C#N)ccc32)cc1 (stereo not drawn) [Ex. 10, 1-(4-methoxyphenyl)-1-{2-(pyrazole-1-yl)ethyl}-1,3-dihydro-5-isobenzofurancarbonitrile]
  Ratio: Number of responding animals/total animal number: 4/9
  Latency: Time to display the ejaculatory response: 889 ± 360 s

## COc1ccc(C2(CCn3cccn3)OCc3cc(C#N)ccc32)cc1.Cl (stereo not drawn) [Ex. 11, 1-(4-methoxyphenyl)-1-{2-(pyrazole-1-yl)ethyl}-1,3-dihydro-5-isobenzofurancarbonitrile hydrochloride]
  Ratio: Number of responding animals/total animal number: 3/7
  Latency: Time to display the ejaculatory response: 974 ± 289 s

## Cl.N#Cc1ccc2c(c1)COC2(CCCn1cccn1)c1cccs1 (stereo not drawn) [Ex. 50, 1-{3-(pyrazole-1-yl)propyl}-1-(2-thienyl)-1,3-dihydro-5-isobenzofurancarbonitrile hydrochloride]
  Ratio: Number of responding animals/total animal number: 3/7
  Latency: Time to display the ejaculatory response: 979 ± 347 s

## CN(C)CCCC1(c2ccccc2)OCc2cc(C#N)ccc21 (stereo not drawn) [Ex. 12, 1-{3-(dimethylamino)propyl}-1-phenyl-1,3-dihydro-5-isobenzofurancarbonitrile]
  Ratio: Number of responding animals/total animal number: 4/9
  Latency: Time to display the ejaculatory response: 1025 ± 189 s

## N#Cc1ccc2c(c1)COC2(CCCn1cccn1)c1ccc(F)cc1 (stereo not drawn) [Ex. 57, 1-(4-fluorophenyl)-1-{3-(pyrazole-1-yl)propyl}-1,3-dihydro-5-isobenzofurancarbonitrile]
  Ratio: Number of responding animals/total animal number: 4/9
  Latency: Time to display the ejaculatory response: 951 ± 342 s

## N#Cc1ccc2c(c1)COC2(CCn1ccnc1)c1ccc(Cl)cc1 (stereo not drawn) [Ex. 63, 1-(4-chlorophenyl)-1-{2-(imidazole-1-yl)ethyl}-1,3-dihydro-5-isobenzofurancarbonitrile]
  Ratio: Number of responding animals/total animal number: 3/7
  Latency: Time to display the ejaculatory response: 904 ± 307 s

## Cl.N#Cc1ccc2c(c1)COC2(CCn1ccnc1)c1ccc(F)cc1 (stereo not drawn) [Ex. 56, 1-(4-fluorophenyl)-1-{2-(imidazole-1-yl)ethyl}-1,3-dihydro-5-isobenzofurancarbonitrile hydrochloride]
  Ratio: Number of responding animals/total animal number: 2/6
  Latency: Time to display the ejaculatory response: 606 ± 130 s

## N#Cc1ccc2c(c1)COC2(CCCn1cccn1)c1cccs1 (stereo not drawn) [Ex. 49, 1-{3-(pyrazole-1-yl)propyl}-1-(2-thienyl)-1,3-dihydro-5-isobenzofurancarbonitrile]
  Ratio: Number of responding animals/total animal number: 5/9
  Latency: Time to display the ejaculatory response: 807 ± 301 s

## Cl.N#Cc1ccc2c(c1)COC2(CCCn1ccnc1)c1ccc(Cl)cc1 (stereo not drawn) [Ex. 62, 1-(4-chlorophenyl)-1-{3-(imidazole-1-yl)propyl}-1,3-dihydro-5-isobenzofurancarbonitrile hydrochloride]
  Ratio: Number of responding animals/total animal number: 4/7
  Latency: Time to display the ejaculatory response: 888 ± 284 s

## Cc1ccc(C2(CCn3ccnc3)OCc3cc(C#N)ccc32)cc1.Cl (stereo not drawn) [Ex. 29, 1-{2-(imidazole-1-yl)ethyl}-1-(4-tolyl)-1,3-dihydro-5-isobenzofurancarbonitrile hydrochloride]
  Ratio: Number of responding animals/total animal number: 5/9
  Latency: Time to display the ejaculatory response: 1054 ± 287 s

## Cl.N#Cc1ccc2c(c1)COC2(CCCn1ccnc1)c1ccc(F)cc1 (stereo not drawn) [Ex. 54, 1-(4-fluorophenyl)-1-{3-(imidazole-1-yl)propyl}-1,3-dihydro-5-isobenzofurancarbonitrile hydrochloride]
  Ratio: Number of responding animals/total animal number: 5/9
  Latency: Time to display the ejaculatory response: 1247 ± 352 s
